{"source": "the RepoRT retention time repository", "data": [{"experiment": "HILIC, Waters Atlantis Premier BEH Z-HILIC, 100 × 2.1 mm, 1.7 µm, 40 °C, 0.15 mL/min, estimated dead time 1.5 min; A: water + 20 mM ammonium carbonate + 5 µM medronic acid; B: 10% water + 90% acetonitrile + 2 mM ammonium carbonate + 0.5 µM medronic acid; gradient (min/%B) 0/90 18/55 18.1/20 21.5/20 22/90 23.5/90 25.5/90", "conditions": "stereoisomer not certain", "units": {"LC retention time": "min"}, "values": [{"smiles": "CC(C)CC(N)C(=O)O", "note": "(configuration not stated) [Leucine]", "LC retention time": 6.22}, {"smiles": "C=C(OP(=O)(O)O)C(=O)O", "note": "[PEP]", "LC retention time": 12.9}, {"smiles": "CC(C)(COP(=O)(O)OP(=O)(O)OCC1OC(n2cnc3c(N)ncnc32)C(O)C1OP(=O)(O)O)C(O)C(=O)NCCC(=O)NCCS", "note": "(configuration not stated) [CoenzymeA]", "LC retention time": 11.8}, {"smiles": "O=C(CO)COP(=O)(O)O", "note": "[Triose phosphate]", "LC retention time": 9.78}, {"smiles": "Nc1ncnc2c1ncn2C1OC(COP(=O)(O)OP(=O)(O)OP(=O)(O)O)C(O)C1O", "note": "(configuration not stated) [ATP]", "LC retention time": 12.9}, {"smiles": "NC(=O)C1=CN(C2OC(COP(=O)(O)OP(=O)(O)OCC3OC(n4cnc5c(N)ncnc54)C(O)C3O)C(O)C2O)C=CC1", "note": "(configuration not stated) [NADH]", "LC retention time": 8.31}, {"smiles": "O=C(O)CCCCC1SCC2NC(=O)NC21", "note": "(configuration not stated) [Biotin]", "LC retention time": 4.58}, {"smiles": "CC(=O)NC1C(OP(=O)(O)OP(=O)(O)OCC2OC(n3ccc(=O)[nH]c3=O)C(O)C2O)OC(CO)C(O)C1O", "note": "(configuration not stated) [UDP-GlcNAc]", "LC retention time": 9.52}, {"smiles": "NC(=O)c1ccc[n+](C2OC(COP(=O)(O)OP(=O)(O)OCC3OC(n4cnc5c(N)ncnc54)C(O)C3O)C(O)C2O)c1", "note": "(configuration not stated) [NAD]", "LC retention time": 9.49}, {"smiles": "CCC(C)C(N)C(=O)O", "note": "(configuration not stated) [Isoleucine]", "LC retention time": 6.5}, {"smiles": "C[N+](C)(C)CC(O)CC(=O)[O-]", "note": "(configuration not stated) [Carnitine]", "LC retention time": 9.89}, {"smiles": "Nc1ncnc2c1ncn2C1OC(CO)C(O)C1O", "note": "(configuration not stated) [Adenosine]", "LC retention time": 3.18}, {"smiles": "O=C(O)CC(O)(CC(=O)O)C(=O)O", "note": "[Citric acid]", "LC retention time": 12.8}, {"smiles": "O=P(O)(O)OCC1OC(O)(COP(=O)(O)O)C(O)C1O", "note": "(configuration not stated) [Fructose-1,6-bisphosphate]", "LC retention time": 14.8}, {"smiles": "Nc1ncnc2c1ncn2C1OC(COP(=O)(O)OP(=O)(O)O)C(O)C1O", "note": "(configuration not stated) [ADP]", "LC retention time": 11.1}, {"smiles": "NC(=O)c1ccc[n+](C2OC(COP(=O)(O)OP(=O)(O)OCC3OC(n4cnc5c(N)ncnc54)C(OP(=O)(O)O)C3O)C(O)C2O)c1", "note": "(configuration not stated) [NADP]", "LC retention time": 13.1}, {"smiles": "O=C(O)CCC(=O)C(=O)O", "note": "[2-Oxoglutaric acid]", "LC retention time": 8.68}, {"smiles": "NC(N)=NCCCC(N)C(=O)O", "note": "(configuration not stated) [Arginine]", "LC retention time": 18.4}, {"smiles": "CCC(=O)OC(CC(=O)[O-])C[N+](C)(C)C", "note": "(configuration not stated) [carnitine-C3]", "LC retention time": 6.42}, {"smiles": "NC(=O)CCC(N)C(=O)O", "note": "(configuration not stated) [Glutamine]", "LC retention time": 10.3}, {"smiles": "O=C(O)CCC(=O)O", "note": "[Succinic Acid]", "LC retention time": 9.23}, {"smiles": "O=C(CO)C(O)C(O)C(O)COP(=O)(O)O", "note": "(configuration not stated) [Fructose 6-phosphate]", "LC retention time": 10.8}, {"smiles": "O=C1CC(C(=O)O)NC(=O)N1", "note": "(configuration not stated) [dihydroorotic acid]", "LC retention time": 3.92}, {"smiles": "OCC1OC(O)C(O)C(O)C1O", "note": "(configuration not stated) [Hexose]", "LC retention time": 7.41}, {"smiles": "Nc1nc2c(ncn2C2OC(COP(=O)(O)OP(=O)(O)OP(=O)(O)O)C(O)C2O)c(=O)[nH]1", "note": "(configuration not stated) [GTP]", "LC retention time": 15.3}, {"smiles": "CC(O)C(=O)O", "note": "(configuration not stated) [Lactic Acid]", "LC retention time": 3.15}, {"smiles": "Cc1cc2nc3c(=O)[nH]c(=O)nc-3n(CC(O)C(O)C(O)COP(=O)(O)OP(=O)(O)OCC3OC(n4cnc5c(N)ncnc54)C(O)C3O)c2cc1C", "note": "(configuration not stated) [FAD]", "LC retention time": 7.03}, {"smiles": "O=C(O)CC(C(=O)O)C(O)C(=O)O", "note": "(configuration not stated) [Isocitric acid]", "LC retention time": 12.8}, {"smiles": "O=C(O)C(CO)OP(=O)(O)O", "note": "(configuration not stated) [Phosphoglyceric acid A]", "LC retention time": 12.7}, {"smiles": "Nc1ncnc2c1ncn2C1OC(COP(=O)(O)O)C(O)C1O", "note": "(configuration not stated) [AMP]", "LC retention time": 9.07}, {"smiles": "O=C(O)CCC(O)C(=O)O", "note": "(configuration not stated) [2-hydroxy glutaric acid]", "LC retention time": 9.22}, {"smiles": "O=P(O)(O)OCC1OC(O)C(O)C(O)C1O", "note": "(configuration not stated) [Glucose-6-phosphate]", "LC retention time": 11.7}, {"smiles": "O=P(O)(O)OCC(O)CO", "note": "(configuration not stated) [Glycerol-3-phosphate]", "LC retention time": 9.92}, {"smiles": "NCCCCC(N)C(=O)O", "note": "(configuration not stated) [Lysine]", "LC retention time": 18.6}, {"smiles": "CC(=O)SCCNC(=O)CCNC(=O)C(O)C(C)(C)COP(=O)(O)OP(=O)(O)OCC1OC(n2cnc3c(N)ncnc32)C(O)C1OP(=O)(O)O", "note": "(configuration not stated) [Acetyl-CoA]", "LC retention time": 10.1}, {"smiles": "NC(CCC(=O)O)C(=O)O", "note": "(configuration not stated) [Glutamic acid]", "LC retention time": 9.23}, {"smiles": "NC(=O)C1=CN(C2OC(COP(=O)(O)OP(=O)(O)OCC3OC(n4cnc5c(N)ncnc54)C(OP(=O)(O)O)C3O)C(O)C2O)C=CC1", "note": "(configuration not stated) [NADPH]", "LC retention time": 13.3}]}]}
